The values below come from PubChem BioAssay AID330 (DTP/NCI, 2004).

The test system of this assay is P388 leukemia ip, CD2F1 mice, survival T/C. Kind of assay: NCI In Vivo Anticancer Drug Screen. Data for tumor model P388 Leukemia (intraperitoneal) in CD2F1 (CDF1) mice. The note with it: endpoint: median survival time, higher = longer survival. Put shortly:
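Mice carrying the transplanted tumor received test compound or vehicle. Survival was recorded in each group, and the value is the treated-group measurement divided by that of the vehicle-treated control group.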

The mark [1] stands for this setting: dose: 50.0 mg/kg/injection, schedule: Q01DX005 (ip), vehicle: Klucel (hydroxypropylcellulose) (HPC).
Setting [2] is: dose: 100.0 mg/kg/injection, schedule: Q01DX005 (ip), vehicle: Klucel (hydroxypropylcellulose) (HPC).
The mark [3] stands for this setting: dose: 200.0 mg/kg/injection, schedule: Q01DX005 (ip), vehicle: Klucel (hydroxypropylcellulose) (HPC).
[4] abbreviates: dose: 50.0 mg/kg/injection, schedule: Q01DX005 (ip), vehicle: saline with Tween-80.
Where [5] appears, read: dose: 100.0 mg/kg/injection, schedule: Q01DX005 (ip), vehicle: saline with Tween-80.
Setting [6] is: dose: 50.0 mg/kg/injection, schedule: Q01DX009 (ip), vehicle: saline with Tween-80.
Where [7] appears, read: dose: 100.0 mg/kg/injection, schedule: Q01DX009 (ip), vehicle: saline with Tween-80.
[8] abbreviates: dose: 200.0 mg/kg/injection, schedule: Q01DX009 (ip), vehicle: saline with Tween-80.
Where [9] appears, read: dose: 50.0 mg/kg/injection, schedule: Q01DX009 (ip), vehicle: Klucel (hydroxypropylcellulose) (HPC).

Values joined by “and” are separate entries in the source; they are usually repeats but may differ in a detail not shown here. Equal values may be shown once. Inconclusive results and toxic doses are left out.

Take `O=c1c2ccccc2cc2n1CCN2`: the T/C by setting is: under setting [1], 96 % of control; under setting [2], 112 % of control; under setting [3], 107 % of control.
With `COC1=CC(=O)C(C2OC(=O)C(Cl)=C2Cl)=CC1=O` (configuration not stated), the T/C under setting [4] is 114 % of control and the T/C under setting [5] is 119 % of control.
On to `c1ccc(-c2nc3cc4ccccc4cc3nc2-c2ccccc2)cc1`, for which the T/C is, setting by setting: under setting [1], 105 % of control; under setting [2], 100 % of control; under setting [3], 99 % of control.
As to `Cc1ccc(S(=O)(=O)OC2CN(C)CC=C2c2ccccc2)cc1` (configuration not stated), the T/C was 105 % of control (dose: 12.5 mg/kg/injection, schedule: Q01DX005 (ip), vehicle: Klucel (hydroxypropylcellulose) (HPC)); 104 % of control (dose: 25.0 mg/kg/injection, schedule: Q01DX005 (ip), vehicle: Klucel (hydroxypropylcellulose) (HPC)); 99 % of control under setting [1]; 99 % of control under setting [2].
Consider `C=C/C=C/NC(=O)N1CCCC1`, for which the T/C reads like this: (dose: 100.0 mg/kg/injection, schedule: Q04DX002 (ip), vehicle: suspension in saline) 102 % of control; (dose: 200.0 mg/kg/injection, schedule: Q04DX002 (ip), vehicle: suspension in saline) 102 % of control; (dose: 400.0 mg/kg/injection, schedule: Q04DX002 (ip), vehicle: suspension in saline) 105 % of control.
For `COC1C=CCCC1` (configuration not stated), the T/C by setting is: (dose: 100.0 mg/kg/injection, schedule: Q01DX001 (ip), vehicle: Klucel (hydroxypropylcellulose) (HPC)) 108 % of control; (dose: 200.0 mg/kg/injection, schedule: Q01DX001 (ip), vehicle: Klucel (hydroxypropylcellulose) (HPC)) 117 % of control; (dose: 400.0 mg/kg/injection, schedule: Q01DX001 (ip), vehicle: Klucel (hydroxypropylcellulose) (HPC)) 106 % of control.
As to `C[N+]1=C(/C=C/Nc2ccc3c4c(cccc24)-c2ccccc2-3)C(C)(C)c2ccccc21`, the T/C by setting is: under setting [6], 108 % of control; under setting [7], 105 % of control; under setting [8], 118 % of control.
Consider `CCCCCCCCCCCCCCCC(=O)OOC(C)(C)C`, for which the T/C reads like this: (dose: 60.0 mg/kg/injection, schedule: Q01DX005 (ip), vehicle: saline with Tween-80) 93 % of control; (dose: 120.0 mg/kg/injection, schedule: Q01DX005 (ip), vehicle: saline with Tween-80) 94 % of control; (dose: 240.0 mg/kg/injection, schedule: Q01DX005 (ip), vehicle: saline with Tween-80) 93 % of control.
In the case of `ClC(Cl)(Cl)C1=NCc2nnn(Cc3ccccc3)c2N1`, the T/C runs as follows: (dose: 6.25 mg/kg/injection, schedule: Q01DX009 (ip), vehicle: Klucel (hydroxypropylcellulose) (HPC)) 113 % of control; (dose: 6.25 mg/kg/injection, schedule: Q01DX009 (ip), vehicle: saline with Tween-80) 118 % of control; (dose: 12.5 mg/kg/injection, schedule: Q01DX009 (ip), vehicle: Klucel (hydroxypropylcellulose) (HPC)) 114 % of control; (dose: 12.5 mg/kg/injection, schedule: Q01DX009 (ip), vehicle: saline with Tween-80) 115 % of control and 117 % of control; (dose: 25.0 mg/kg/injection, schedule: Q01DX009 (ip), vehicle: saline with Tween-80) 105 % of control and 106 % of control; under setting [9], 104 % of control. Further, the T/C runs as follows: under setting [7], 110 % of control; under setting [8], 100 % of control and 113 % of control; (dose: 400.0 mg/kg/injection, schedule: Q01DX009 (ip), vehicle: saline with Tween-80) 96 % of control.
Consider `Brc1ccc(N=C=C(c2ccccc2)c2ccccc2)cc1`, for which the T/C is, setting by setting: under setting [6], 95 % of control; under setting [7], 100 % of control; under setting [8], 104 % of control.
With `CCOC(=O)c1nc(C)nc(N)c1C`, the T/C by setting is: (dose: 12.5 mg/kg/injection, schedule: Q01DX009 (ip), vehicle: water) 102 % of control; (dose: 25.0 mg/kg/injection, schedule: Q01DX009 (ip), vehicle: water) 91 % of control; (dose: 50.0 mg/kg/injection, schedule: Q01DX009 (ip), vehicle: water) 93 % of control; (dose: 100.0 mg/kg/injection, schedule: Q01DX009 (ip), vehicle: water) 100 % of control; (dose: 200.0 mg/kg/injection, schedule: Q01DX009 (ip), vehicle: water) 100 % of control.
Turning to `Cc1ccc(/C=C/c2ccc([N+](=O)[O-])cc2)cc1`, the T/C under setting [1] is 105 % of control and 97 % of control; the T/C under setting [2] is 90 % of control and 96 % of control; the T/C under setting [3] is 93 % of control; the T/C (dose: 400.0 mg/kg/injection, schedule: Q01DX005 (ip), vehicle: Klucel (hydroxypropylcellulose) (HPC)) was 102 % of control and 103 % of control.
Consider `O=S(=O)(c1ccc(NC(=S)NCc2cccnc2)cc1)N1CCCCC1`, for which the T/C is, setting by setting: under setting [9], 92 % of control; (dose: 100.0 mg/kg/injection, schedule: Q01DX009 (ip), vehicle: Klucel (hydroxypropylcellulose) (HPC)) 93 % of control; (dose: 200.0 mg/kg/injection, schedule: Q01DX009 (ip), vehicle: Klucel (hydroxypropylcellulose) (HPC)) 95 % of control.
As to `C[N+](C)(C)CCNP(=O)(Oc1ccccc1)c1ccccc1` (configuration not stated), the T/C under setting [4] was 103 % of control and the T/C under setting [5] was 94 % of control.
As to `CO[C@H]1/C=C/O[C@@]2(C)Oc3c(C)c(O)c4c(O)c(c(/C=N/N5C(C)CN(Cc6ccccc6)CC5C)c(O)c4c3C2=O)NC(=O)/C(C)=C\C=C\[C@H](C)[C@H](O)[C@@H](C)[C@@H](O)[C@@H](C)[C@H](OC(C)=O)[C@@H]1C` (some centres not stated), the T/C runs as follows: (dose: 100.0 mg/kg/injection, schedule: Q01DX009 (ip), vehicle: saline sonified) 90 % of control; (dose: 200.0 mg/kg/injection, schedule: Q01DX009 (ip), vehicle: saline sonified) 95 % of control.
Take `CCOC(=O)c1cc[nH]c1CC(=O)NC`: the T/C runs as follows: (dose: 25.0 mg/kg/injection, schedule: Q01DX001 (ip), vehicle: saline with Tween-80) 98 % of control and 107 % of control; (dose: 50.0 mg/kg/injection, schedule: Q01DX001 (ip), vehicle: saline with Tween-80) 102 % of control and 105 % of control; (dose: 100.0 mg/kg/injection, schedule: Q01DX001 (ip), vehicle: saline with Tween-80) 103 % of control and 113 % of control; (dose: 200.0 mg/kg/injection, schedule: Q01DX001 (ip), vehicle: saline with Tween-80) 113 % of control and 116 % of control.
With `COc1cc(NS(C)(=O)=O)ccc1Nc1c2ccc([N+](=O)[O-])cc2nc2c(C)cccc12`, the T/C is, setting by setting: (dose: 3.0 mg/kg/injection, schedule: Q01DX009 (ip), vehicle: saline with Tween-80) 272 % of control; (dose: 3.0 mg/kg/injection, schedule: Q04DX003 (ip), vehicle: saline with Tween-80) 181 % of control; (dose: 6.0 mg/kg/injection, schedule: Q01DX009 (ip), vehicle: saline with Tween-80) 100 % of control; (dose: 6.0 mg/kg/injection, schedule: Q04DX003 (ip), vehicle: saline with Tween-80) 209 % of control; (dose: 7.9 mg/kg/injection, schedule: Q04DX003 (ip), vehicle: saline with Tween-80) 218 % of control; (dose: 12.0 mg/kg/injection, schedule: Q04DX003 (ip), vehicle: saline with Tween-80) 181 % of control and 231 % of control.
In the case of `COc1ccc(C(=O)/C=C/c2ccc(OC)c(OC)c2OC)c(O)c1`, the T/C reads like this: (dose: 100.0 mg/kg/injection, schedule: Q04DX003 (ip), vehicle: Klucel (hydroxypropylcellulose) (HPC)) 99 % of control; (dose: 200.0 mg/kg/injection, schedule: Q04DX003 (ip), vehicle: Klucel (hydroxypropylcellulose) (HPC)) 99 % of control; (dose: 400.0 mg/kg/injection, schedule: Q04DX003 (ip), vehicle: Klucel (hydroxypropylcellulose) (HPC)) 90 % of control.
As for `Cc1cc(Br)ccc1N=Nc1c(C)noc1C`, the T/C (dose: 100.0 mg/kg/injection, schedule: Q04DX002 (ip), vehicle: saline) is 104 % of control; the T/C (dose: 200.0 mg/kg/injection, schedule: Q04DX002 (ip), vehicle: saline) was 104 % of control; the T/C (dose: 400.0 mg/kg/injection, schedule: Q04DX002 (ip), vehicle: saline) is 101 % of control.
As for `COc1cc(NC(=O)c2ccc(NC(=O)c3ccc(N)cc3)cc2)c(OC)cc1N=Nc1ccc(N=Nc2ccc3cc(S(=O)(=O)O)cc(S(=O)(=O)O)c3c2)c(C)c1`, the T/C is 106 % of control (2×) and 111 % of control (dose: 50.0 mg/kg/injection, schedule: Q01DX005 (ip), vehicle: saline); 106 % of control and 109 % of control and 115 % of control (dose: 100.0 mg/kg/injection, schedule: Q01DX005 (ip), vehicle: saline); 114 % of control and 115 % of control and 123 % of control (dose: 200.0 mg/kg/injection, schedule: Q01DX005 (ip), vehicle: saline); 116 % of control and 117 % of control (dose: 400.0 mg/kg/injection, schedule: Q01DX005 (ip), vehicle: saline).
